Assay results from PubChem BioAssay (NCI).
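Dose response: 5 concentrations. Exposure: 48 h. Format: 96-well plates. Endpoint: linear interpolation; highest concentration if not reached. At the GI50, growth is halved. Definition used: TGI = concentration required for complete inhibition of growth.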

Columns and labels:
Assay in all cases: growth of human tumour cells (NCI), 48 h
[1] = system: HOP-92 NSCLC
[2] = system: HL-60(TB) leukemia
[3] = system: COLO 205 colon
[4] = system: SK-MEL-28 melanoma
[5] = system: LOX IMVI melanoma
[6] = system: UO-31 renal
[7] = system: UACC-62 melanoma
[8] = system: RXF 393 renal
[9] = system: M14 melanoma
[10] = system: HCC-2998 colon

Row | Structure (SMILES) | TGI [1] | TGI [2] | TGI [3] | TGI [4] | TGI [5] | TGI [6] | TGI [7] | TGI [8] | TGI [9] | TGI [10] | GI50 [1] | GI50 [2] | GI50 [3] | GI50 [4] | GI50 [5] | GI50 [6] | GI50 [7] | GI50 [8] | GI50 [9] | GI50 [10]
1 | Nc1nc(N)[n+]([O-])c(N)c1NCO | > 100 µM | > 100 µM | > 100 µM | > 100 µM | > 100 µM | > 100 µM | > 100 µM | > 100 µM | > 100 µM | > 100 µM |  |  |  |  |  |  |  |  |  | 
2 | CC(Cl)(/C=C/Cl)C(Cl)/C=C/C(Cl)(CCl)CBr (centres undefined) | 4.01 µM | 5.32 µM | 4.94 µM | 8.27 µM | 4.5 µM | 28.6 µM | 5.2 µM | 2.92 µM | 7.89 µM | 33.2 µM |  |  |  |  |  |  |  |  |  | 
3 | Cn1cc(-c2ccc(=O)n(Cc3cccc(-c4ncc(OCCN5CCOCC5)cn4)c3)n2)cn1 | > 100 µM | > 100 µM | > 100 µM | > 100 µM | > 100 µM | > 100 µM | > 100 µM | > 100 µM | > 100 µM | > 100 µM | 34.9 µM | 74.1 µM | 53.7 µM | > 89.5 µM | > 100 µM | 64.8 µM | 48.7 µM | > 75.4 µM | 84.2 µM | > 100 µM
4 | C/C(=N\NC(=S)Nc1ccc(C(=O)O)cc1)c1ccccn1 | > 100 µM | 52.5 µM | 34.3 µM | > 100 µM | > 100 µM | 39.8 µM | 21.9 µM | 74.4 µM | 28.7 µM | 32.7 µM |  |  |  |  |  |  |  |  |  | 
5 | COC(=O)c1cnc(=O)n(C2CC(O)C(CO)O2)c1 (centres undefined) | > 100 µM | > 100 µM | > 100 µM | > 100 µM | > 100 µM | > 100 µM | > 100 µM | > 100 µM | > 100 µM | > 100 µM |  | > 100 µM | > 100 µM | > 100 µM | > 100 µM | > 100 µM | > 100 µM | > 100 µM | > 100 µM | > 100 µM
6 | Cc1cc2c(C)c3cc(C)c(N)cc3nc2cc1N | 5.13 µM | 10.1 µM | 3.31 µM | 10.5 µM | 4.03 µM | 8.79 µM | 3.58 µM | 4.42 µM | 6.69 µM | 4.91 µM | 1.54 µM | 3 µM | 0.581 µM | 2.69 µM | 0.893 µM | 2.02 µM | 0.998 µM | 1.16 µM | 1.83 µM | 1.12 µM
7 | CCOC(=O)C1C=C2O[C@@H]3OC4(CCCCC4)O[C@@H]3C2[C@H]2C(=O)C=CC(=O)[C@@]12C(=O)OC (some centres undefined) | 26.2 µM | 5.83 µM | 22.4 µM | 30 µM | 32.9 µM | 29.9 µM | 30.9 µM | 3.59 µM | 30.1 µM | 28 µM |  |  |  |  |  |  |  |  |  | 
8 | CCCCCCCCCCCCc1ccc(C(=O)/C=C/C(=O)O)cc1 | 5.78 µM | 3.58 µM | 3.84 µM | 3.74 µM | 2.81 µM | 3.01 µM | 3.66 µM | 3.34 µM | 4.17 µM | 17.7 µM | 1.95 µM | 1.56 µM | 1.83 µM | 1.92 µM | 1.45 µM | 1.63 µM | 1.71 µM | 1.76 µM | 1.79 µM | 5.45 µM
9 | Cn1ncc2cc3c(Nc4ccc(Cl)cc4)cccc3nc21 | 47.7 µM | 43.4 µM | 28.1 µM | 35.8 µM | 41.4 µM | 88.7 µM | 32.7 µM | 37.6 µM | 46.3 µM | 54.5 µM |  |  |  |  |  |  |  |  |  | 
10 | O=[N+]([O-])c1ccc(Sc2ncccn2)c([N+](=O)[O-])c1 | 3.94 µM | 15.8 µM | 10.8 µM | 13.5 µM | 15 µM | 7.36 µM | 16.2 µM | 3.23 µM | 18.4 µM | 26.5 µM | 1.15 µM | 2.37 µM | 3.11 µM | 3.89 µM | 4.3 µM | 1.93 µM | 4.31 µM | 0.0489 µM | 5.26 µM | 13 µM
11 | Nc1cccc2c1C(=O)N(C1CCC(=O)NC1=O)C2=O (centres undefined) | > 100 µM | > 100 µM | > 100 µM | > 100 µM | > 100 µM | > 100 µM | > 100 µM | > 100 µM | > 100 µM | > 100 µM | > 100 µM | > 100 µM | > 100 µM | > 100 µM | > 100 µM | > 100 µM | > 100 µM | > 100 µM | > 100 µM | > 100 µM
12 | C[C@H]1[C@H](OC(=O)CCC(=O)O)O[C@@H]2O[C@]3(C)CC[C@H]4[C@H](C)CC[C@@H]1[C@@]24OO3 | 2.38 µM | 0.566 µM | 1.37 µM | > 100 µM | 4.79 µM | 7.38 µM | 27.4 µM | 33 µM | 14.8 µM | 24 µM | 0.214 µM | 0.167 µM | 0.341 µM | 4.27 µM | 0.421 µM | 0.398 µM | 0.474 µM | 0.953 µM | 0.777 µM | 1.48 µM
13 | COc1ccccc1C(=O)/C=C/c1cc2cccc(OC)c2[nH]c1=O | 2.07 µM | 0.0583 µM | 1.43 µM | 6.63 µM | 0.724 µM | 1.68 µM | 1.93 µM | 0.991 µM | 0.3 µM | 1.3 µM | 0.115 µM | 0.0144 µM | 0.0481 µM | 1.08 µM | 0.0262 µM | 0.115 µM | 0.0412 µM | 0.0584 µM | < 0.0131 µM | 0.141 µM
14 | COc1ccc(-c2cc(-c3ccc(Nc4nc(Nc5ccc(Cl)cc5)nc(Nc5ccc(Cl)cc5)n4)cc3)nc(N)c2C#N)cc1 | 3.14 µM | 4.59 µM | 2.75 µM | 1.22 µM | 2.73 µM | 3.26 µM | 10.6 µM | 1.92 µM | 4.36 µM | 4.55 µM | 1.31 µM | 0.866 µM | 0.865 µM | 0.49 µM | 1.4 µM | 1.57 µM | 2.64 µM | 0.491 µM | 1.97 µM | 1.85 µM
